According to patent publication US12383567B2, “Use of cannabinoids in the treatment of epilepsy” (Jazz Pharmaceuticals Research UK Limited, priority 2017, dated 2025):

Experiment: Drug-drug interaction between cannabidiol (CBD) and tacrolimus in an epilepsy patient (clinical trial, open label phase)
Type: in vivo, human
Experimental: The patient was a person with refractory epilepsy receiving the immunosuppressant drug tacrolimus for interstitial nephritis.
The patient had been stable on tacrolimus at a dose of 5 mg twice per day for a year prior to entry into a clinical trial on the use of CBD to treat childhood-onset epilepsy. At the time of entry into the study their blood level of tacrolimus was between 3.9 and 8.4 ng/mL.
The patient was initially randomized to the sesame oil placebo arm of the trial, during this phase there was no change in the levels of tacrolimus or serum creatine.
The dose of tacrolimus was reduced repeatedly while receiving CBD as described in FIG. 1. A dose of 0.5 mg twice per day (a 10-fold reduction) was finally reached.

[1] = during the time the subject was taking CBD with tacrolimus

C=C(C)[C@@H]1CCC(C)=C[C@H]1c1c(O)cc(CCCCC)cc1O [CBD, Cannabidiol]
blood urea nitrogen (BUN) change [1]: significant increase | serum creatine levels change [1]: significant increase | tacrolimus toxicity (open label phase, receiving CBD concurrently with tacrolimus): signs of tacrolimus toxicity
